Experimental data from PMC11033359 (Frontiers in Pharmacology, 2024).
“Also recorded” adds a separate entry of the source. Where two headings read alike, the source gives them in different places. Blank lines part the entries; values can stand above or below the compound they belong to.

How the values were obtained:
[1] = tested on: HLMs (human liver microsomes); assay: Michaelis-Menten kinetics of tofacitinib metabolism (M8 formation) in HLMs; format: in vitro ADME; details: tofacitinib metabolism to M8, no inhibitor, n = 3
Method: (§1) All except NADPH were mixed on ice.
(§2) Statistical analysis was conducted using Student's t-test.

[2] = tested on: RLMs (rat liver microsomes); assay: Inhibition of tofacitinib metabolism (M8 formation) in RLMs by furanocoumarins; format: in vitro ADME; details: for inhibitory effectiveness on RLMs (screening, M8 content): 100 μM furanocoumarin, 0.3 mg/mL RLMs; for IC50: substrate tofacitinib at about Km, 30 min, 37°C
Method: as §1, §2

[3] = in vivo; design: species or system Sprague Dawley rats; details: male, Sprague-Dawley, rat, po, 10 mg/kg
Method: Male Sprague Dawley (SD) rats (average weighing 220–250) g were purchased from the laboratory animal center of Wenzhou Medical University, Zhejiang Province, China. Animals were maintained in a controlled environment with a 12 h light-dark cycle at 20°C–25°C and 55% ± 15% relative humidity. Diet intake was not allowed for a period of 12 h prior to the experiment. Then, water was allowed to be free and food was provided after the experiment. All the experimental procedures and protocols were reviewed and approved by the animal ethics committee of Wenzhou Medical University according to the guide for the care and use of laboratory animals (xmsq2021-0409). 36 male rats aged 8–10 weeks were randomly selected and divided into six groups for gavage. […] Blood (300 μL) was collected from the tail veins into 1.5 mL tubes at 5, 15, and 30 min and 1, 2, 3, 4, 6, 8, 12, and 24 h after administering the drugs. The supernatant was collected and stored at −20°C after centrifugation at 4000 rpm for 10 min. The samples were restored to RT before analysis. 50 μL sample was accurately drawn to 1.5 mL of EP tube, 150 μL of midazolam internal standard solution (200 ng/mL) was added to the tube, then placed and vortexed for 15 s. After centrifugation at 13, 000 rpm for 15 min, 150 µL of supernatant was prepared for the UPLC-MS/MS system to analyze.
as §2

[4] = tested on: RLMs (rat liver microsomes); assay: Michaelis-Menten kinetics of tofacitinib metabolism (M8 formation) in RLMs; format: in vitro ADME; details: tofacitinib metabolism to M8, no inhibitor, n = 3
Method: as §1, §2

[5] = tested on: HLMs (human liver microsomes); assay: Inhibition of tofacitinib metabolism (M8 formation) in HLMs; format: in vitro ADME; details: for Inhibition type / Ki: substrate tofacitinib; for IC50: substrate tofacitinib at about Km, 30 min, 37°C
Method: as §1, §2

[6] = biological target: recombinant human CYP3A4 (rCYP3A4) (Homo sapiens, UniProt P08684); assay: Inhibition of tofacitinib metabolism (M8 formation) by rCYP3A4
Method: as §1, §2

recombinant human CYP3A4 (rCYP3A4), sequence (P08684 whole entry): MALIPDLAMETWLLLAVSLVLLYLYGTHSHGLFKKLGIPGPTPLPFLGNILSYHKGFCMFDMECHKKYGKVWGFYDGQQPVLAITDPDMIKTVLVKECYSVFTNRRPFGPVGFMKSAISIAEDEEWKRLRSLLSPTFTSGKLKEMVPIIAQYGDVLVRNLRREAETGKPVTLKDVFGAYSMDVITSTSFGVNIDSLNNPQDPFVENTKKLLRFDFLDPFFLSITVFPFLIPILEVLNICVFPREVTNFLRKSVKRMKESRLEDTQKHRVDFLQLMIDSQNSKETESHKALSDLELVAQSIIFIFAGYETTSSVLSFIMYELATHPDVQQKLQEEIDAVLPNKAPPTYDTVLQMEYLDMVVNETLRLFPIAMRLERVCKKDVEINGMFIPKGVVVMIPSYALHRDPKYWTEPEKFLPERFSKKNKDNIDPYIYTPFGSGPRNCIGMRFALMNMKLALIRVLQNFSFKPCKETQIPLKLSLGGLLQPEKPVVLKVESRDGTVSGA

- Km [1]: 65.8 ± 4.75 µM
- Km ([2]; RLMs, bergapten 0 μM): 65.5 µM
- Km ([2]; RLMs, bergapten 0.5 μM): 72.3 µM
- Km ([2]; RLMs, bergapten 1 μM): 88.6 µM
- Km ([2]; RLMs, bergapten 2 μM): 160 µM
- Km ([2]; RLMs, bergapten 4 μM): 411 µM
- Km ([2]; RLMs, isopsoralen 0 μM): 77.7 µM
- Km ([2]; RLMs, isopsoralen 5 μM): 114 µM
- Km ([2]; RLMs, isopsoralen 10 μM): 259 µM
- Km ([2]; RLMs, isopsoralen 20 μM): 538 µM
- Km ([2]; RLMs, isopsoralen 40 μM): 410 µM
- CLz/F [3]: 144 ± 39.3 mL/min/kg
- t1/2z [3]: 1.73 ± 0.44 h
- MRT last ([3]; MRT(0-t)): 2.1 ± 0.27 h
- MRT inf ([3]; MRT(0-∞)): 2.19 ± 0.28 h
- Km [4]: 76.2 ± 4.51 µM
- Km ([5]; bergapten 0 μM): 47.8 µM
- Km ([5]; bergapten 0.5 μM): 53.1 µM
- Km ([5]; bergapten 1 μM): 76.7 µM
- Km ([5]; bergapten 2 μM): 190 µM
- Km ([5]; bergapten 4 μM): ~5860 µM
- Km ([5]; isopsoralen 0 μM): 61.7 µM
- Km ([5]; isopsoralen 5 μM): 71.1 µM
- Km ([5]; isopsoralen 10 μM): 134 µM
- Km ([5]; isopsoralen 20 μM): 432 µM
- Km ([5]; isopsoralen 40 μM): 930 µM
Structure (SMILES): C[C@@H]1CCN(C(=O)CC#N)C[C@@H]1N(C)c1ncnc2[nH]ccc12 [tofacitinib, Tofacitinib]
- Vmax [1]: 2.802 ± 0.0842 M8 area ratio
- Vmax ([2]; RLMs, bergapten 0 μM): 8.021 M8 area ratio
- Vmax ([2]; RLMs, bergapten 0.5 μM): 8.054 M8 area ratio
- Vmax ([2]; RLMs, bergapten 1 μM): 8.111 M8 area ratio
- Vmax ([2]; RLMs, bergapten 2 μM): 8.689 M8 area ratio
- Vmax ([2]; RLMs, bergapten 4 μM): 9.555 M8 area ratio
- Vmax ([2]; RLMs, isopsoralen 0 μM): 5.190 M8 area ratio
- Vmax ([2]; RLMs, isopsoralen 5 μM): 5.555 M8 area ratio
- Vmax ([2]; RLMs, isopsoralen 10 μM): 5.529 M8 area ratio
- Vmax ([2]; RLMs, isopsoralen 20 μM): 4.503 M8 area ratio
- Vmax ([2]; RLMs, isopsoralen 40 μM): 2.664 M8 area ratio
- Vmax [4]: 7.259 ± 0.1879 M8 area ratio
- Vmax ([5]; bergapten 0 μM): 2.973 M8 area ratio
- Vmax ([5]; bergapten 0.5 μM): 2.960 M8 area ratio
- Vmax ([5]; bergapten 1 μM): 3.018 M8 area ratio
- Vmax ([5]; bergapten 2 μM): 4.088 M8 area ratio
- Vmax ([5]; bergapten 4 μM): ∼43.85 M8 area ratio
- Vmax ([5]; isopsoralen 0 μM): 1.886 M8 area ratio
- Vmax ([5]; isopsoralen 5 μM): 1.938 M8 area ratio
- Vmax ([5]; isopsoralen 10 μM): 1.718 M8 area ratio
- Vmax ([5]; isopsoralen 20 μM): 2.148 M8 area ratio
- Vmax ([5]; isopsoralen 40 μM): 2.589 M8 area ratio

Structure (SMILES): O=c1ccc2ccc3occc3c2o1 [Isopsoralen]
- inhibitory effectiveness on RLMs (screening, M8 content) [2]: potent inhibitory activity
- Inhibition type ([2]; RLMs, substrate tofacitinib): competitive suppression; also recorded: Competitive inhibition
- IC50 ([2]; RLMs): 19.3 µM
- risk of DDI with tofacitinib (from Ki) [6]: medium
- IC50 ([6]; IC50, rCYP3A4, substrate tofacitinib at about Km, 30 min, 37°C): 17.1 µM
- Ki ([6]; Ki, rCYP3A4, substrate tofacitinib): 15.4 µM
- Inhibition type ([6]; rCYP3A4, substrate tofacitinib): competitive suppression; also recorded: Competitive inhibition
- Inhibition type [5]: competitive suppression; also recorded: Competitive inhibition
- Ki [5]: 1.77 µM
- IC50 [5]: 12.3 µM

Structure (SMILES): COc1c2ccoc2cc2oc(=O)ccc12 [Bergapten, 5-methoxy-psoralen]
- inhibitory effectiveness on RLMs (screening, M8 content) [2]: potent inhibitory activity
- Inhibition type ([2]; RLMs, substrate tofacitinib): Competitive inhibition
- Ki ([2]; RLMs, substrate tofacitinib): 0.443 µM
- IC50 ([2]; RLMs): 2.62 µM
- Inhibition type ([2]; RLMs, substrate tofacitinib, listed as bergapten): competitively inhibited
- IC50 [6]: 1.42 µM
- Ki [6]: 1.22 µM
- Inhibition type ([6]; rCYP3A4, substrate tofacitinib): Competitive inhibition
- Inhibition type ([6]; rCYP3A4, substrate tofacitinib, listed as bergapten): competitively inhibited
- Inhibition type [5]: Competitive inhibition
- Ki [5]: 0.189 µM
- IC50 [5]: 2.65 µM
- Inhibition type ([5]; listed as bergapten): competitively inhibited
